Assay results published in US7855290B2, “Pyridine derivatives and pyrimidine derivatives (3)” (Eisai R&D Management Co., Ltd., priority 2005, dated 2010).

Columns and labels:
[1] = system: Human gastric cancer cells (MKN-45); assay: Inhibitory activity against the proliferation of human gastric cancer cells (MKN-45); assay type: cell-based; details: 72 h, MKN-45, 1% FBS RPMI1640, 3 days, Cell Counting Kit-8
In short: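 MKN-45 cells seeded overnight in RPMI1640 with 1% FBS, then exposed to compound for 3 days at 37° C, 5% CO2. Viability read with CCK-8 after about 1.5 hrs, absorbance at 450 nm (reference 660 nm).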

[2] = target: T1, HGFR (Homo sapiens, UniProt P08581); assay: Inhibitory activity against the HGFR autophosphorylation using ELISA (MKN-45 cells); assay type: cell-based; details: 1 hr with test substance
T1 construct: endogenous in cells; host or cells: MKN-45 human gastric cancer cells
Protocol: Human gastric cancer cells (MKN-45) were suspended in a 1% FBS-containing RPMI1640 medium (purchased from Sigma). The cell suspension (1×10^5 cells/ml) was put in a 96-well plate for cell culture (purchased from NUNC, Production No. 167008) at 0.1 ml/well, and then cultured in a 5% CO2 incubator (37° C.) overnight. After the culture, from each well was removed the supernatant, followed by adding 0.05 ml of a 1% FBS-containing RPMI1640 medium. Then, the well was supplied with 0.05 ml of the test substance dissolved in dimethyl sulfoxide (diluted with a 1% FBS-containing RPMI1640 medium), followed by culturing in a 5% CO2 incubator (37° C.) for 1 hr. From each well was removed the supernatant, and each well was washed with 150 μl of PBS, followed by adding 100 μl of a lysis buffer (50 mM Hepes (pH 7.4), 150 mM NaCl, 10% (v/v) glycerol, 1% Triton X-100, 1.5 mM MgCl2, 1 mM EDTA (pH 8.0), 100 mM NaF, 1 mM PMSF, 10 μg/ml Aprotinin, 50 μg/ml Leupeptin, 1 μg/ml Pepstatin A and 1 mM Na3VO4). The plate was shaken at 4° C. for 1 hr to prepare the cell extract.
To a 96-well plate for ELISA (purchased from COSTAR, Production No. 3369) was added 50 μl of 60 mM bicarbonate buffer (pH 9.6) containing 50 μg/ml of an anti-phosphotyrosine antibody (PY20, purchased from Transduction Laboratory, Production No. P-11120). The plate was incubated at 4° C. overnight.
Each well of the plate prepared in 2. was washed three times with 200 μl of PBS, and supplied with 150 μl of 3% BSA/PBS, followed by incubating at room temperature for 2 hrs. Each well was washed three times with 200 μl of PBS, and supplied with 50 μl of the above cell extract, followed by incubating at 4° C. overnight. After the incubation, each well was washed three times with 250 μl of a washing solution (0.1% BSA, 20 mM Tris-HCl (pH 7.6), 137 mM NaCl, and 0.05% Tween-20), and supplied with 70 μl of anti-HGFR antibody (h-Met(C-12), purchased from Santa Cruz, Production No. sc-10) 2,000-fold diluted with a reaction solution (1% BSA, 20 mM Tris-HCl (pH 7.6), 137 mM NaCl and 0.05% Tween-20), followed by incubating at room temperature for 1 hr. The well was washed three times with 250 μl of the washing solution, and supplied with 70 μl of peroxidase-labelled anti-rabbit IgG antibody (purchased from Cell Signaling, Production No. 7074) 2,000-fold diluted with the reaction solution, followed by incubating at room temperature for 1 hr. Each well was washed three times with 250 μl of the washing solution, and supplied with 70 μl of TMB Membrane Peroxidase Substrate (purchased from Funakoshi, Production No. 50-5077-03), followed by incubating at room temperature for 10 min. Each well was supplied with 70 μl of 1 M phosphoric acid, and using the Plate Reader MTP-500 (Corona Electric), the absorbance of the well was instantly determined at a measurement wavelength of 450 nm. While defining the absorbance of a well supplied with the cell extract having no test substance as 100% HGFR autophosphorylation activity, and the absorbance of a well supplied with 50 μl of the lysis buffer as 0% HGFR autophosphorylation activity, the HGFR autophosphorylation activity (%) was calculated for each well.

T1 sequence (P08581 25-1390): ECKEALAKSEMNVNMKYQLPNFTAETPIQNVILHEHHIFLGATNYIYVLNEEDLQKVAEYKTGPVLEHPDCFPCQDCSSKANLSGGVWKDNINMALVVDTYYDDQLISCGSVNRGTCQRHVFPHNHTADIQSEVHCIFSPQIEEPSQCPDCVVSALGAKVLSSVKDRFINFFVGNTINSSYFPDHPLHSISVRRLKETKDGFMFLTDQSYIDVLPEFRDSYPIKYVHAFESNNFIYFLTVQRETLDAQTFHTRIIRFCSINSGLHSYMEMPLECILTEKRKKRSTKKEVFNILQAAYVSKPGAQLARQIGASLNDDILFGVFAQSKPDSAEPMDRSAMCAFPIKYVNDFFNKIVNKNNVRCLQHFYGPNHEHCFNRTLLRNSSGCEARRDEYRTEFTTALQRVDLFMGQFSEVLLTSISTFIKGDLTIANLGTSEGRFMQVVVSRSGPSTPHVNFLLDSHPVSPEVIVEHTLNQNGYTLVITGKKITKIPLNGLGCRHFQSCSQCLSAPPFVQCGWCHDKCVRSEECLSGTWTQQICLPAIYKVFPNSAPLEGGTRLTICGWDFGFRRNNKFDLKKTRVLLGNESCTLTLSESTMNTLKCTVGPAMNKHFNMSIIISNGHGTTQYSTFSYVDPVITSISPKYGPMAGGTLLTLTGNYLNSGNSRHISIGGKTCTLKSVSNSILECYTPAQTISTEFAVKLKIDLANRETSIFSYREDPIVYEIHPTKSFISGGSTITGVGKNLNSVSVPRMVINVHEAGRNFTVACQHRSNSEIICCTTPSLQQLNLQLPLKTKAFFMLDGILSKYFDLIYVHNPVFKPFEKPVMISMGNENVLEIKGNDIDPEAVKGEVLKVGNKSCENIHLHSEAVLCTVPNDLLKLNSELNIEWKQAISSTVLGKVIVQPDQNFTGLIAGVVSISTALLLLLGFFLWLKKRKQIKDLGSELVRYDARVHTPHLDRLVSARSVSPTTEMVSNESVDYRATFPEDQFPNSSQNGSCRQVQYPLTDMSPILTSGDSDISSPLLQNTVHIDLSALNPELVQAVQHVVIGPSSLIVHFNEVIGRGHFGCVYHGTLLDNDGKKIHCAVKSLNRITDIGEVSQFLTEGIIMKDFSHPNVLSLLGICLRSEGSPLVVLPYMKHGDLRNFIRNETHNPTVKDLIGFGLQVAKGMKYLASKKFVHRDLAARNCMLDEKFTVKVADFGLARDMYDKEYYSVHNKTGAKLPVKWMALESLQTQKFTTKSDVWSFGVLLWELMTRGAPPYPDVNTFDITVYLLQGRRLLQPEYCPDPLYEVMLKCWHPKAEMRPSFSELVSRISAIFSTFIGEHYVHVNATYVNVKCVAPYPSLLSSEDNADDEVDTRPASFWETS

Row | Compound | IC50 [1] [nM] | IC50 [2] [nM]
1 | CN1CCC(N2CCN(C(=O)Nc3cc(Oc4ccc(NC(=O)C5(C(=O)Nc6ccc(F)cc6)CC5)cc4)ccn3)CC2)CC1 [Example 31, N-(4-Fluorophenyl)-N′-(4-{[2-({[4-(1-methylpiperidin-4-yl)piperazin-1-yl]carbonyl}amino)pyridin-4-yl]oxy}phenyl)cyclopropane-1,1-dicarboxamide] | 31 | 30
2 | CN1CCC(N(C)C(=O)Nc2cc(Oc3ccc(NC(=O)C4(C(=O)Nc5ccc(F)cc5)CC4)cc3F)ncn2)CC1 [Example 33, N-(3-Fluoro-4-{[6-({[methyl(1-methylpiperidin-4-yl)amino]carbonyl}amino)pyrimidin-4-yl]oxy}phenyl)-N′-(4-fluorophenyl)cyclopropane-1,1-dicarboxamide] | 55 | 25
3 | O=C(Nc1cc(Oc2ccc(NC(=O)C3(C(=O)Nc4ccc(F)cc4)CC3)cc2F)ncn1)N1CCOCC1 [Example 35, N-[3-Fluoro-4-({6-{(morpholin-4-ylcarbonyl)amino}pyrimidin-4-yl}oxy)phenyl]-N′-(4-fluorophenyl)cyclopropane-1,1-dicarboxamide] | 230 | 120
4 | CN(C)[C@@H]1CCN(C(=O)Nc2cc(Oc3ccc(NC(=O)C4(C(=O)Nc5ccc(F)cc5)CC4)cc3F)ccn2)C1 [Example 36, N-(4-{[2-({[(3R)-3-(Dimethylamino)pyrrolidin-1-yl]carbonyl}amino)pyridin-4-yl]oxy}-3-fluorophenyl)-N′-(4-fluorophenyl)cyclopropane-1,1-dicarboxamide] | 22 | 15
5 | CN(C)C1CN(C2CCN(C(=O)Nc3cc(Oc4ccc(NC(=O)C5(C(=O)Nc6ccc(F)cc6)CC5)cc4)ccn3)CC2)C1 [Example 38, N-[4-({2-[({4-[3-(Dimethylamino)azetidin-1-yl]piperidin-1-yl}carbonyl)amino]pyridin-4-yl}oxy)phenyl]-N′-(4-fluorophenyl)cyclopropane-1,1-dicarboxamide] | 52 | 18
6 | CN(C)CCN1CCC(N(C)C(=O)Nc2cc(Oc3ccc(NC(=O)C4(C(=O)Nc5ccc(F)cc5)CC4)cc3)ccn2)CC1 [Example 39, N-(4-{[2-({[{1-[2-(Dimethylamino)ethyl]piperidin-4-yl}(methyl)amino]carbonyl}amino)pyridin-4-yl]oxy}phenyl)-N′-(4-fluorophenyl)cyclopropane-1,1-dicarboxamide] | 38 | 16

Further lines, results first:

Row | IC50 [1] [nM] | IC50 [2] [nM] | Compound
7 | 27 | 15 | CN1CCN(C2CCN(C(=O)Nc3cc(Oc4ccc(NC(=O)C5(C(=O)Nc6ccc(F)cc6)CC5)cc4)ccn3)CC2)CC1 [Example 32, N-(4-Fluorophenyl)-N′-(4-{[2-({[4-(4-methylpiperazin-1-yl)piperidin-1-yl]carbonyl}amino)pyridin-4-yl]oxy}phenyl)cyclopropane-1,1-dicarboxamide]
8 | 190 | 81 | O=C(Nc1cc(Oc2ccc(NC(=O)C3(C(=O)Nc4ccc(F)cc4)CC3)cc2F)ncn1)N1CCC(N2CCC2)CC1 [Example 34, N-{4-[(6-{[(4-Azetidin-1-ylpiperidin-1-yl)carbonyl]amino}pyrimidin-4-yl)oxy]-3-fluorophenyl}-N′-(4-fluorophenyl)cyclopropane-1,1-dicarboxamide]
9 | 14 | 6.6 | O=C(Nc1cc(Oc2ccc(NC(=O)C3(C(=O)Nc4ccc(F)cc4)CC3)c(F)c2)ccn1)N1CCC(CN2CCC2)CC1 [Example 37, N-(4-{[2-({[4-(Azetidin-1-ylmethyl)piperidin-1-yl]carbonyl}amino)pyridin-4-yl]oxy}-2-fluorophenyl)-N′-(4-fluorophenyl)cyclopropane-1,1-dicarboxamide]
10 | 17 | 8 | O=C(Nc1cc(Oc2ccc(NC(=O)C3(C(=O)Nc4ccc(F)cc4)CC3)c(F)c2)ccn1)N1CCC(CN2CCCC2)CC1 [Example 40, N-(4-Fluorophenyl)-N′-(2-fluoro-4-{[2-({[4-(pyrrolidin-1-ylmethyl)piperidin-1-yl]carbonyl}amino)pyridin-4-yl]oxy}phenyl)cyclopropane-1,1-dicarboxamide]
